Reference: US20250136572A1, “PARA ACYL SUBSTITUTED DIAZACYCLOHEXENE DERIVATIVES” (Renovel Innovations, Inc., priority 2021, published 2025)

How the values were obtained:
[1] = Oral glucose tolerance test in C57BL/6 mice on high fat diet; assay type: in vivo; set-up: concentration or dose not given beside the values; settings: for reduction in blood glucose at the peak oral glucose tolerance test of 30 minutes: compared with the control high fat diet group
[2] = Body weight in C57BL/6 mice on high fat diet; assay type: in vivo, male C57BL/6 mice; settings: for decrease in body weight: compared to the high fat diet control group
[3] = Fasting blood glucose in mice on high fat diet; assay type: in vivo; settings: compared with the control high fat diet group
Blood pressure in rats = assay type: in vivo; settings: compared to the vehicle group
[4] = Triglycerides in high fructose fed hamsters; assay type: in vivo; settings: compared with the high fructose fed group
TNF-α = TNF-α in LPS-treated mice; assay type: in vivo; settings: from the LPS group

In the case of `CCOC(=O)C1=C(C)NC(=S)NC1c1ccc(OC(=O)C(C)C)c(OC)c1` (stereo not shown) [Compound 4, 4-(4-Isobutyryloxy-3-methoxy-phenyl)-6-methyl-2-thioxo-1,2,3,4-tetrahydro-pyrimidine-5-carboxylic acid ethyl ester], the “reduction in blood glucose at the peak oral glucose tolerance test of 30 minutes” value (“reduction in blood glucose … of 30 minutes” below) [1] is reported as 33% and the “reduction in blood glucose at 120 minutes after glucose administration” value ([1]; 120 minutes after glucose administration) is reported as 26%.

With `CCOC(=O)C1=C(C)NC(=O)NC1c1ccc(OC(=O)C(C)C)c(OC)c1` (stereo not shown) [Compound 3, 4-(4-Isobutyryloxy-3-methoxy-phenyl)-6-methyl-2-oxo-1,2,3,4-tetrahydro-pyrimidine-5-carboxylic acid ethyl ester] the “reduction in blood glucose … of 30 minutes” value [1] was 6%.

In the case of `CCOC(=O)C1=C(C)NC(=O)NC1c1ccc(OC(=O)/C=C/c2ccccc2)c(OC)c1` (stereo not shown) [Compound 2, 4-[3-Methoxy-4-(3-phenyl-acryloyloxy)-phenyl]-6-Methyl-2-oxo-1,2,3,4-tetrahydro-pyrimidine-5-carboxylic acid ethyl ester], the “decrease in body weight” value ([2]; FIG. 6A, C57BL/6 mice) is reported as 5%, the “decrease in body weight” value ([2]; FIG. 6B, significant (P<0.0001)) is reported as 15% and the “reduction in blood glucose … of 30 minutes” value [1] is reported as 8%.

For `CCOC(=O)C1=C(C)NC(=O)NC1c1ccc(OC(=O)/C=C/c2ccccc2)cc1` (stereo not shown) [Compound 1, 6-Methyl-2-oxo-4-[4-(3-phenyl-acryloyloxy)-phenyl]-1,2,3,4-tetrahydro-pyrimidine-5-carboxylic acid ethyl ester], the “decrease in percent change in body weight” value ([2]; FIG. 1B, compared with the control high fat diet group) was 15%, the “decrease in fasting blood glucose” value [3] was 26% and the “reduction in blood glucose … of 30 minutes” value [1] was 23%. For the same compound, the “decrease in diastolic blood pressure” value (Blood pressure in rats) was 8%, the “decrease in systolic blood pressure” value (Blood pressure in rats) was 4% and the decrease in triglycerides [4] was 31%. For the same compound, the “decrease of TNF-α” value (TNF-α) was 59%.
